{"source": "patent US20040014676A1", "about": "“SRC kinase inhibitors useful for treating osteoporosis” (priority 2001, published 2004)", "data": [{"target": "T1, Src kinase (Homo sapiens, UniProt P12931)", "T1 construct": "purchased Upstate Bioteolnology (sic; Upstate Biotechnology); later HMR stock 27597-019E1 #14-117", "test": "Phosphorylation assay of Src kinase inhibitors (radiometric, 96 well filter plate)", "assay_type": "biochemical", "conditions": "duplicates, tested in the range of 400-0.098 µM; 10 µM peptide substrate (FIYGAFKKKKNH2), 5 µM unlabeled ATP, room temperature 30 min; read-out: IC50", "how_it_was_run": "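Radiometric filter-plate assay: Src kinase (1:100 dilution) was incubated with 10 μM peptide FIYGAFKKK-NH2, 5 μM unlabeled ATP and radiolabeled ATP for 30 min at room temperature. Reactions were stopped with 150 mM H3PO4, the peptide was captured on phosphocellulose and scintillation counted. Ki values were determined for some compounds.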", "units": {"IC50": "µM"}, "values": [{"compound": "NCCCCC(NC(=O)c1cc2ccccc2cc1OCCCCNC(=O)[C@@H](N)Cc1ccc(O)cc1)C(N)=O", "note": "(stereo partly drawn) [Example 8, 3-[4-[[2(S)-AMINO-3-(4-HYDROXY- PHENYL)-1-OXOPROPYL]AMINO]- BUTOXY]-NAPHTHALENE-2-[N-[[(4- AMINOBUTYL)(AMIDO)]METHYL]- ACETAMIDO]CARBOXAMIDE]", "IC50": 348}, {"compound": "3-[[[2(S)-AMINO-3-(4-HYDROXY- PHENYL)-1-OXO]PROPYL]AMINO]- BUTOXY]NAPHTHALENE-2-[N- [(AMIDO)[2-(INDOL-3-YL)METHYL]- METHYL]CARBOXAMIDE [Example 29]", "IC50": 60}, {"compound": "NC(=O)CNC(=O)c1cc2ccccc2cc1OCCCCNC(=O)[C@@H](N)Cc1ccc(I)cc1", "note": "[Example 62, 3-[4-[[[1-OXO-2(S)-AMINO-3(4- IODOPHENYL)]PROPYL]AMINO]- BUTOXY]-NAPHTHALENE-2-(N- ACETAMIDO)CARBOXAMIDE]", "IC50": 6.25}, {"compound": "N[C@@H](Cc1ccc(O)cc1)C(=O)NCCCCOc1ccc2ccccc2c1C(=O)NCC(=O)NCCCO", "note": "[Example 117, 2-[[4-[[1-OXO-2(S)-AMINO-3-(4- HYDROXYPHENYL)]PROPYL]AMINO]BUTOXY]NAPHTHALENE-1-[N-[[(3- HYDROXYPROPYLAMINO)- CARBONYL]METHYL]]CARBOXAMIDE]", "IC50": 47}, {"compound": "NC(=O)CNC(=O)c1cc2ccccc2cc1OCCCCNC(=O)C1NCCC1c1ccc(O)cc1", "note": "[Example 21, 3-[N-[[[(3-(R)4-HYDROXYPHENYL)- TETRAHYDROPYRROL-2-YL]- CARBONYL]AMINO]BUTOXY]- NAPHTHALENE-2-[N-(2- AMIDOMETHYL)]CARBOXAMIDE]", "IC50": 4.6}, {"compound": "CCC(C)[C@H](N)C(=O)NC(Cc1ccc(O)cc1)C(=O)NCCCCOc1cc2ccccc2cc1C(=O)NCC(N)=O", "note": "(some centres unmarked) [Example 19]", "IC50": 12}, {"compound": "NC(=O)CNC(=O)c1cc2ccccc2cc1OCCCCNC(=O)CNCc1cccc2ccccc12", "note": "[Example 71]", "IC50": 6}, {"compound": "NC(=O)CNC(=O)c1cc2ccccc2cc1OCCCCNC(=O)C1NCCC1c1ccc(O)cc1", "note": "[Example 22, 3-[N-[[[(3-(S)4-HYDROXYPHENYL)- TETRAHYDROPYRROL-2-YL]- CARBONYL]AMINO]BUTOXY]- NAPHTHALENE-2-[N-(2- AMIDOMETHYL)]CARBOXAMIDE]", "IC50": 11}, {"compound": "NC(=O)CNC(=O)c1cc2ccccc2cc1OCCCCNC(=O)C(=C/c1ccc(O)cc1)/C(N)=N/O", "note": "[Example 150, 3-[[4-[N-[1-OXO-2-[(HYDROXYIMINO)- (AMINO)METHYL]-3-(4-HYDROXY- PHENYL)]]PROP-2-ENYL]AMINO]- BUTOXY]-NAPHTHALENE-2-(N- ACETAMIDO)CARBOXAMIDE]", "IC50": 16}, {"compound": "NC(=O)CNC(=O)c1cc2ccccc2cc1NC(=O)CCCNC(=O)[C@@H](N)Cc1ccc(O)cc1", "note": "[Example 34, 3-[[[[[[2(S)-AMINO-3-(4-HYDROXY- PHENYL)-1-OXO]PROPYL]AMINO]- PROPYL]CARBONYL] AMINO]- NAPHTHALENE-2-(N-ACETAMIDO)- CARBOXAMIDE]", "IC50": 252}, {"compound": "NC(=O)CNC(=O)c1cc2ccccc2cc1NCCCCNC(=O)[C@H](N)Cc1ccc(O)cc1", "note": "(stereo in doubt) [Example 123]", "IC50": 25}, {"compound": "3-[[[4-[[[1-OXO-2(S)-AMINO-3- HYDROXYPHENYL)]PROPYL]AMINO]- BUTYL]CARBONYL]AMINO]- NAPHTHALENE-2-ACETAMIDO)- CARBOXAMIDE [Example 91]", "IC50": 209}, {"compound": "NC(=O)CNC(=O)c1cc2ccccc2cc1OCCCCCNC(=O)[C@@H](N)Cc1ccc(O)cc1", "note": "[Example 94, 3-[5-[[[1-OXO-2(S)-AMINO-3-(4- HYDROXYPHENYL)]PROPYL]AMINO]- PENTOXY]NAPHTHALENE-2-(N- ACETAMIDO)CARBOXAMIDE]", "IC50": 6.6}, {"compound": "NC(=O)CNC(=O)c1cc2ccccc2cc1OCCCCNC(=O)[C@@H](N)CC1=CS(=O)(=O)c2ccccc21", "note": "[Compound 155, (2S)-2-amino-3-(1,1-dioxobenzo[b]thiophen-3-yl)-N-(4-{3-[N-(carbamoylmethyl)carbamoyl](2-naphthyloxy)}butyl)propanamide]", "IC50": 5}]}]}
